From US8097585B2, “Methods of treating inflammation by administration of heme oxygenase-1 and products of heme degradation” (priority 2002, dated 2012)
Structures can show the parent of a compound that is named as a salt.

Tested on: MnSOD
Experiment: Real time RT-PCR of graft muscularis after SITx, MnSOD
Type: in vivo, LEW rats
Conditions: BV treatment
Procedure: Small Intestinal Transplantation. Orthotopic small intestinal transplantation (SITx) was performed in syngeneic Lewis rats. SITx with caval drainage was performed using a previously described procedure (Murase et al., in Handbook of Animal Models in Transplantation Research, Cramer et al., Eds. CRC Press, Boca Raton, Fla., pp. 203-213 (1994)). […] The graft was perfused via the aortic segment with 5 ml chilled Ringer's lactate solution, and the intestinal lumen was irrigated with 20 ml of cold saline solution containing 0.5% neomycin-sulfate (Sigma, St. Louis, Mo.). […]
SYBR green real time RT-PCR. The effects of administration of biliverdin on transplant-induced pro-inflammatory and anti-inflammatory gene expression were assessed in muscularis extracts by RT-PCR Biliverdin ([…], i.p.) was administered to both the donor and recipient three hours preoperatively. […] Equal aliquots (5 μg) of total RNA from each sample were quantified by spectrophotometry (wavelength […]) and aliquoted at a concentration of 40 ng/μl. Peak mRNA expression was quantified in duplicate by SYBR Green two-step, real-time RT-PCR. […] Real-time PCR data were plotted as the ΔRn fluorescence signal versus the cycle number. […] Quantification of mRNA expression was normalized to GAPDH and calculated relative to control using the comparative CT method (Schmittgen et al., J. Biochem. Biophys. Methods 46(1-2):69-8, 2000). […]

## C=CC1=C(C)/C(=C/C2=NC(=C\c3[nH]c(/C=C4\NC(=O)C(C)=C4C=C)c(C)c3CCC(=O)O)/C(CCC(=O)O)=C2C)NC1=O [biliverdin, biliverdin dihydrochloride]
  MnSOD expression in the graft: significantly reduced
